In data set [1] the target is T1, human phenylalanine hydroxylase (hPAH) (Homo sapiens, UniProt P00439).
T1 construct: Recombinant full-length wild-type (WT) hPAH was expressed in E. coli Top10 cells in fusion with a hexa-histidyl peptide; made in house; host or cells: E. coli Top10
T1 sequence (P00439 1-452): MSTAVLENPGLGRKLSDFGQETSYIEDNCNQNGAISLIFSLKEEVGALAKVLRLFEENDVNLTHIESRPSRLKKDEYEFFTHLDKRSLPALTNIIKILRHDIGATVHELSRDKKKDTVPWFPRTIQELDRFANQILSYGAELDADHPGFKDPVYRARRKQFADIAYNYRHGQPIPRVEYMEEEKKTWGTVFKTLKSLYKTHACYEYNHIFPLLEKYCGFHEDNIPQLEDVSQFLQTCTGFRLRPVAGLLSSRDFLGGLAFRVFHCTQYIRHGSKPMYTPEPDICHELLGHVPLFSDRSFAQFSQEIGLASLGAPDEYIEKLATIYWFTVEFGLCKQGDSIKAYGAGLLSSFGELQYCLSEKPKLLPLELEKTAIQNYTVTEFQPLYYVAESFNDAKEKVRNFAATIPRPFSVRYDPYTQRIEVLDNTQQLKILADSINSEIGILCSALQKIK
In words: hPAH enzymatic activity assay (NA, 3HQ-A and Phe/3HQ-A conditions). Particulars: 100 μM compound; for remaining activity at 100 µM: read-out: hPAH residual activity vs control. It counts as biochemical. The method, then: The hPAH activity was measured essentially as previously described. Briefly, the enzymatic reaction was performed in a 200 μL final volume, containing 250 mM Na-HEPES, pH 7, 0.1 mg/mL catalase (Sigma-Aldrich; St. Louis, MO, USA), 5 μg (final concentration of 0.112 μM of tetramer) of recombinant hPAH tetramers and 100 μM (NH4)2Fe(II)SO4. Using 100 μM L-Phe and 100 μM of tested compound, three experimental conditions were used to study the compounds’ modulatory effect, namely: non activated (NA), 3HQ-activated (3HQ-A) and substrate/3HQ-activated (Phe/3HQ-A) (Supplementary Figure S3). The reaction was started by addition of 75 μM BH4 (Schircks Laboratories; Bauma, Switzerland) prepared in 5 mM ascorbic acid. In the NA assay, the L-Phe substrate and tested compounds were added together with 75 µM BH4 at the start of the hydroxylation reaction. In the 3HQ-A condition, hPAH was pre-incubated with the tested compound for 4 min at 25 °C and the reaction was started by the addition of BH4 together with L-Phe. In the Phe/3HQ-A condition, hPAH was pre-incubated simultaneously with L-Phe and the tested compound (4 min, 25 °C). Appropriate control reactions were performed where the compounds were omitted and 1% DMSO was used. Kinetic parameters were determined using variable concentrations of L-Phe (25 to 2500 μM) and fixed concentrations of BH4 (75 μM) and tested compound (100 μM). After a 1-min incubation, the reaction was stopped, and the amount of L-Tyr produced was quantified by HPLC as previously described. The specific hPAH enzymatic activity is expressed as nmol of L-Tyr produced during 1 min per mg of protein (nmol L-Tyr.min^−1.mg^−1). The steady-state kinetic data were analyzed by nonlinear regression analysis using GraphPad Prism (La Jolla, CA, USA). Data was fitted to the modified Hill equation accounting for cooperative substrate binding as well as substrate inhibition (Equation (1)), to the modified Michaelis–Menten equation which accounts for substrate inhibition (Equation (2)) and to the non-modified Michaelis–Menten equation:v = (Vmax + Vi ([S]^x/Ki^x))/(1 + (K^h/[S]^h) + ([S]^x/Ki^x))(1) v = (Vmax [S])/(Km + [S](1 + [S]/Ki))(2)

For data set [2], the target named is T1, human phenylalanine hydroxylase (hPAH). In words: Surface plasmon resonance, immobilized hPAH. It counts as binding. Particulars: for Kd / KD (steady-state affinity constant): 25 °C, 3HQs up to 200 μM, no saturation (lower limits); for Kd: read-out: KD (steady-state affinity constant). How it is done: The affinity of hPAH for 3HQs was evaluated by surface plasmon resonance (SPR) using a Biacore 4000 (GE Healthcare) instrument. All assays were carried out at 25 °C. Optimization of hPAH immobilization on a carboxymethylated dextran (CM5) matrix of the sensor chip was initiated by performing a pH scouting, using as buffers 10 mM sodium acetate (pH 5.0, 5.2, 5.5 and 5.8), 10 mM Bis-Tris (pH 6.0, 6.2 and 6.5), and 10 mM sodium phosphate (pH 7.0). hPAH was diluted to 10 µg/mL in the best immobilization buffer (10 mM sodium acetate pH 5.5) and immobilized onto the CM5 sensor chip using the standard amine coupling procedure. The HBS-N buffer, consisting of 10 mM HEPES pH 7.4 and 150 mM NaCl, was used as background buffer. Prior to immobilization, the carboxymethylated surface of the chip was activated with a 1:1 ratio of 400 mM 1-ethyl-3-(3-dimethylaminopropyl)-carbodiimide and 100 mM N-hydroxysuccinimide for 10 min. The hPAH was coupled to the surface with a 1 to 2 min injection time at a flow rate of 10 μL/min in order to reach 2000 to 5000 RU. The remaining activated carboxymethylated groups were blocked with a 7 min injection of 1 M ethanolamine pH 8.5.
The 3HQs were directly diluted in running buffer (10 mM HEPES, 150 mM NaCl, 5 mM MgCl2, 0.1 mM EDTA, 0.05% (v/v) Tween-20, 1 mM DTT, pH 7.2, and 2% DMSO) and injected at ten different concentrations using two-fold dilutions series, from 200 µM to ≈ 0.4 μM. The interaction between hPAH and L-Phe in the ≈ 2–1000 μM range was also analyzed, for comparison with literature values. Moreover, L-Phe (at 1 mM) was used as a positive control to collect information on surface integrity and activity throughout the experiment. For competition experiments, 1 mM L-Phe was added to the running buffer. All sensorgrams were processed by first subtracting the binding response recorded from the control surface (reference spot), followed by subtracting an average of the buffer blank injections from the reaction spot. Interactions were assessed from the obtained plots of steady-state SPR response levels against 3HQs concentration, employing the provided Biacore 4000 evaluation software.
(In SPR one partner is held on a chip, and binding of the other changes the refractive index at the surface.)

For data set [3] the target is unchanged. The experiment in a line: Limited proteolysis of hPAH by trypsin. Particulars: 100 μM in 1% DMSO, 25 °C, trypsin:hPAH 1:200; control 0.41 ± 0.03. How it is done: Limited proteolysis of purified hPAH was performed as previously described, at 25 °C in SEC buffer and with a trypsin (Sigma-Aldrich) to hPAH ratio of 1:200 (by mass; final hPAH protein concentration 300 μg/mL), in the presence of 100 µM of 3HQ derivatives or 1% DMSO. Control assays were also performed in the presence of 100 μM and 1 mM L-Phe. At different time points (0 to 60 min), aliquots of the reaction were mixed with soybean trypsin inhibitor (Sigma-Aldrich) at a protease to inhibitor ratio of 1:1.5 (by mass) and analyzed by SDS-PAGE (10% polyacrylamide). The band corresponding to full-length hPAH was quantified by densitometric analysis using the Quantity One 1D software v4.6.3 (Bio-Rad). Data were fitted to a single exponential decay equation to obtain the decay constant of proteolysis (kP). Assays were performed in duplicate and data represent the mean ± SEM.

Where two headings read alike, the source gives them in different places.

For orientation: Kd means the equilibrium constant for the complex coming apart. Consider `CCOC(=O)[C@H](Cc1ccccc1)NC(=O)c1c(O)c(=O)[nH]c2ccc(OC(F)(F)F)cc12` [Compound 3], for which, in data set [1] (100 μM L-Phe), the “fold activation by L-Phe (Phe/3HQ-A vs. 3HQ-A)” value (“fold activation by L-Phe” for short) is listed as 1.3 fold. Also, the remaining activity at 100 µM came out at 69% in data set [1] (3HQ-A condition (4 min pre-incubation with compound, 25 °C)); 57% in data set [1] (Phe/3HQ-A condition (pre-incubation with L-Phe and compound)). The “hPAH activity, fold increase vs control” value in data set [1] (NA (non-activated) condition, 100 μM L-Phe, 1% DMSO control) worked out at 1.1 fold. Also, in data set [2] (1 mM L-Phe in running buffer), the “ΔRU reduction in the presence of L-Phe” value is over 50%. For the same compound, in data set [2], the Kd was at least 121 µM. Further, the “proteolytic rate (kP)” value in data set [3] is 0.29 ± 0.04 min⁻¹.
Consider `COC(=O)CC[C@H](NC(=O)c1c(O)c(=O)[nH]c2ccc(OC(F)(F)F)cc12)C(=O)OC` [Compound 9], for which the “fold activation by L-Phe” value in data set [1] (100 μM L-Phe) stood at 1.4 fold. For the same compound, the remaining activity at 100 µM in data set [1] (NA (non-activated) condition) is 58%. Moreover, the “KD (steady-state affinity constant)” value in data set [2] was “at least mM affinity”. For the same compound, the “proteolytic rate (kP)” value in data set [3] was 0.38 ± 0.04 min⁻¹.
In the case of `COC(=O)CNC(=O)c1c(O)c(=O)[nH]c2ccc(OC(F)(F)F)cc12` [Compound 11], the “fold enzyme activation by compound (3HQ-A vs. NA)” value in data set [1] is on record as 1.6 fold. Besides, the “fold activation by L-Phe” value in data set [1] (100 μM L-Phe) is reported as 1.5 fold. Moreover, the “KD (steady-state affinity constant)” value in data set [2] is “at least mM affinity”. Moreover, the “proteolytic rate (kP)” value in data set [3] worked out at 0.41 ± 0.01 min⁻¹.
With `O=C(NCCc1ccccc1)c1c(O)c(=O)[nH]c2ccc(OC(F)(F)F)cc12` [Compound 8], the “fold activation by L-Phe” value in data set [1] (100 μM L-Phe) amounted to 1.7 fold. The dissociation constant Kd in data set [2] was at least 200 µM. The “proteolytic rate (kP)” value in data set [3] was 0.30 ± 0.01 min⁻¹.
`N[C@@H](Cc1ccccc1)C(=O)O` [L-Phe, L-phenylalanine, reference compound]: the Kd in data set [2] was determined as 47 ± 8 µM. For the same compound, in data set [3], the “proteolytic rate (kP)” value was found to be 0.15 ± 0.01 min⁻¹.

Source of the values: paper PMC8003416, “Modulation of Human Phenylalanine Hydroxylase by 3-Hydroxyquinolin-2(1H)-One Derivatives” (Biomolecules, 2021).
